For 25 molecules, EC50 results are on record in patent US10508104B2, “6-hydroxy-5-(phenyl/heteroarylsulfonyl)pyrimidin-4(1H)-one as APJ agonists” (Bristol-Myers Squibb Company, priority 2016, dated 2019).

Sequence of human APJ receptor (P35414 whole entry): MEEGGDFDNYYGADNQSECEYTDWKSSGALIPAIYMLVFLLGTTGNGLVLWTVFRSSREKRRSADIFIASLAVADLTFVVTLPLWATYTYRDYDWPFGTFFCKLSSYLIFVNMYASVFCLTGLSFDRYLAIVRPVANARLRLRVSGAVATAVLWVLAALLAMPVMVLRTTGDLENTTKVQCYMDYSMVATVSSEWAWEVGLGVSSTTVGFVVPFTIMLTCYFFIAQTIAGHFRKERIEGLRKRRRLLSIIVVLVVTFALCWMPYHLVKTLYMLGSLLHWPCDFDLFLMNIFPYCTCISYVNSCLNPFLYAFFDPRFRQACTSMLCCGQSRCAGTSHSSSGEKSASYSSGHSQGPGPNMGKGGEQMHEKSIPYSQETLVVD

The target in one assay is human APJ receptor (Homo sapiens (Human), UniProt P35414). As to the kind of experiment: Intracellular cAMP accumulation assay (APJ hcAMP, HTRF). The conditions noted are these: HEK293 cells stably expressing human APJ receptor; inhibition of forskolin-mediated cAMP production; read-out: Human APJ cAMP EC50 Potency range. Format: cell-based. Here is the method:
Intracellular cAMP Accumulation Assay
HEK293 cells stably expressing human APJ receptor were used to assess the activity of compounds. Cultured cells were detached and resuspended in the cAMP Homogeneous Time-Resolved Fluorescence (HTRF) assay buffer (Cisbio cat; #62AM4PEJ). The assay was performed in 384-well assay plates (Perkin-Elmer; cat #6008289) according to assay protocol provided by the manufacturer. Serial dilutions of a compound together with assay buffer containing […] and 2 μM forskolin were added to each well containing 5,000 cells and incubated for 30 minutes at room temperature. Subsequently, cAMP D2 reagent was added in the lysis buffer followed by the EuK antibody (Cisbio; cat #62AM4PEJ) and incubated for 60 min. The fluorescence emission ratio was measured using fluorometer. The intracellular cAMP concentrations (compound-stimulated inhibition of forskolin-mediated cAMP production) were calculated by extrapolation from a standard curve using known cAMP concentrations. The EC50 values were obtained by fitting the data to a sigmoidal concentration-response curve with variable slope.
The EC50 value of each compound is presented at the end of the example description.
The biological activity of the exemplified compounds of this invention determined by the assay described above is shown at the end of each example.
As usually defined, the EC50 is the concentration that produces a half-maximal response. Regarding `COC[C@@H](c1ccccc1)n1c(COC(C)C)nc(=O)c(S(=O)(=O)c2ccc(-c3ccncc3C#N)cc2)c1O` [Example 406, 4-[4-({6-hydroxy-1-[(1R)-2-methoxy-1-phenylethyl]-4-oxo-2-[(propan-2-yloxy)methyl]-1,4-dihydropyrimidin-5-yl}sulfonyl)phenyl]pyridine-3-carbonitrile], the EC50 lay in the range of 0.01 to 10 nM.

For `CCCCc1nc(=O)c(S(=O)(=O)c2ccc(-c3ccc(F)nc3C)cc2)c(O)n1[C@@H](CC)c1cc(F)cc(C#N)c1` [Example 453, 3-[(1S)-1-{2-butyl-5-[4-(6-fluoro-2-methylpyridin-3-yl)benzenesulfonyl]-6-hydroxy-4-oxo-1,4-dihydropyrimidin-1-yl}propyl]-5-fluorobenzonitrile], the EC50 lay within 0.01 to 10 nM. On to `CC[C@@H](c1cccc(C#N)c1)n1c(CC2CC2)nc(=O)c(S(=O)(=O)c2ccc(-c3ccc(F)cc3C(N)=O)cc2)c1O` [Example 469, 4′-({1-[(1S)-1-(3-cyanophenyl)propyl]-2-(cyclopropylmethyl)-6-hydroxy-4-oxo-1,4-dihydropyrimidin-5-yl}sulfonyl)-4-fluoro-[1,1′-biphenyl]-2-carboxamide], for which the EC50 lay within 0.01 to 10 nM. Consider `CCCCc1nc(=O)c(S(=O)(=O)c2ccc(-c3ccnc(F)c3C)cc2)c(O)n1[C@@H](CC)c1cc(F)cc(C#N)c1` [Example 458, 3-[(1S)-1-{2-butyl-5-[4-(2-fluoro-3-methylpyridin-4-yl)benzenesulfonyl]-6-hydroxy-4-oxo-1,4-dihydropyrimidin-1-yl}propyl]-5-fluorobenzonitrile], for which the EC50 was in the range of 0.01 to 10 nM. Same read-out and setting: next, `CC[C@@H](c1cc(F)cc(C#N)c1)n1c(CC2CC2)nc(=O)c(S(=O)(=O)c2ccc(-c3ccc(F)cc3C(N)=O)cc2)c1O` [Example 473, 4′-({1-[(1S)-1-(3-cyano-5-fluorophenyl)propyl]-2-(cyclopropylmethyl)-6-hydroxy-4-oxo-1,4-dihydropyrimidin-5-yl}sulfonyl)-4-fluoro-[1,1′-biphenyl]-2-carboxamide]: 0.01 to 10 nM; `COC[C@@H](c1cc(F)cc(F)c1)n1c(COC(C)C)nc(=O)c(S(=O)(=O)c2ccc(-c3cnn(C)c3C)cc2)c1O` [Example 397, 1-[(1R)-1-(3,5-difluorophenyl)-2-methoxyethyl]-5-[4-(1,5-dimethyl-1H-pyrazol-4-yl)benzenesulfonyl]-6-hydroxy-2-[(propan-2-yloxy)methyl]-1,4-dihydropyrimidin-4-one]: 0.01 to 10 nM; `CCCCc1nc(=O)c(S(=O)(=O)c2ccc(C3CC3)cc2)c(O)n1-c1c(OC)cccc1OC` [Example 85, 2-Butyl-5-((4-cyclopropylphenyl)sulfonyl)-1-(2,6-dimethoxyphenyl)-6-hydroxypyrimidin-4(1H)-one]: 0.01 to 10 nM.

As to `CCOCc1nc(=O)c(S(=O)(=O)c2ccc(-c3ccc(F)nc3C)c(F)c2)c(O)n1C(COC)c1cccc(F)c1` (stereo not shown) [Example 376, 2-(ethoxymethyl)-5-[3-fluoro-4-(6-fluoro-2-methylpyridin-3-yl)benzenesulfonyl]-1-[1-(3-fluorophenyl)-2-methoxyethyl]-6-hydroxy-1,4-dihydropyrimidin-4-one], the EC50 is 0.01 to 10 nM. Consider `CCCCc1nc(=O)c(S(=O)(=O)c2ccc(-c3cccnc3C)cc2)c(O)n1[C@@H](CC)c1cc(F)cc(C#N)c1` [Example 449, 3-[(1S)-1-{2-butyl-6-hydroxy-5-[4-(2-methylpyridin-3-yl)benzenesulfonyl]-4-oxo-1,4-dihydropyrimidin-1-yl}propyl]-5-fluorobenzonitrile], for which the EC50 was in the range of 0.01 to 10 nM. Take `COC[C@@H](c1ccccc1)n1c(COC(C)C)nc(=O)c(S(=O)(=O)c2ccc(-c3cnccc3C#N)cc2)c1O` [Example 413, 3-[4-({6-hydroxy-1-[(1R)-2-methoxy-1-phenylethyl]-4-oxo-2-[(propan-2-yloxy)methyl]-1,4-dihydropyrimidin-5-yl}sulfonyl)phenyl] pyridine-4-carbonitrile]: the EC50 was 0.01 to 10 nM. On to `CCCCc1nc(=O)c(S(=O)(=O)c2ccc(-c3ccnc(F)c3C)cc2)c(O)n1[C@@H]1CCc2ccc(C#N)cc21` [Example 542, (3R)-3-{2-butyl-5-[4-(2-fluoro-3-methylpyridin-4-yl)benzenesulfonyl]-6-hydroxy-4-oxo-1,4-dihydropyrimidin-1-yl}-2,3-dihydro-1H-indene-5-carbonitrile], for which the EC50 fell in the range of 10 to 100 nM. On the same count and under the same terms, next, `CC[C@@H](c1cccc(C#N)c1)n1c(CC2CC2)nc(=O)c(S(=O)(=O)c2ccc(-c3cnccc3C(N)=O)cc2)c1O` [Example 472, 3-[4-({1-[(1S)-1-(3-cyanophenyl)propyl]-2-(cyclopropylmethyl)-6-hydroxy-4-oxo-1,4-dihydropyrimidin-5-yl}sulfonyl)phenyl] pyridine-4-carboxamide]: 0.01 to 10 nM. Same read-out and setting: next, `CCCCc1nc(=O)c(S(=O)(=O)c2ccc(-c3cccnc3C)cc2)c(O)n1[C@H](c1cccc(C#N)c1)C1CC1` [Example 484, 3-[(S)-{2-butyl-6-hydroxy-5-[4-(2-methyipyridin-3-yl)benzenesulfonyl]-4-oxo-1,4-dihydropyrimidin-1-yl}(cyclopropyl)methyl] benzonitrile]: 0.01 to 10 nM.

Still in this assay, the particulars now being: human APJ, cAMP accumulation; read-out: Human APJ cAMP EC50 Potency range.
As to `COC[C@@H](c1ccccc1)n1c(C2CCCO2)nc(=O)c(S(=O)(=O)c2ccc(-c3ccc(F)nc3)cc2)c1O` (single isomer, unassigned) [Example 359], the EC50 was in the range of 0.01 to 10 nM. For the molecule `CCOCc1nc(=O)c(S(=O)(=O)c2ccc(-c3ccnc(F)c3C)cc2)c(O)n1[C@H]1CCOc2ccccc21` [Example 342, 1-[(4S)-3,4-dihydro-2H-1-benzopyran-4-yl]-2-(ethoxymethyl)-5-[4-(2-fluoro-3-methylpyridin-4-yl)benzenesulfonyl]-6-hydroxy-1,4-dihydropyrimidin-4-one], the EC50 was in the range of 10 to 100 nM. Take `COC[C@@H](c1ccccc1)n1c(C2CCCO2)nc(=O)c(S(=O)(=O)c2ccc(-c3ccncc3C)cc2)c1O` (single isomer, unassigned) [Example 351]: the EC50 was 0.01 to 10 nM. As to `CCCCCc1nc(=O)c(S(=O)(=O)c2ccc(-c3ccc(F)nc3C)cc2)c(O)n1[C@@H](COC)c1ccccc1` [Example 250, 5-[4-(6-fluoro-2-methylpyridin-3-yl)benzenesulfonyl]-6-hydroxy-1-[(1R)-2-methoxy-1-phenylethyl]-2-pentyl-1,4-dihydropyrimidin-4-one], the EC50 lay within 0.01 to 10 nM.

Staying with this assay, now noted: human APJ, intracellular cAMP accumulation; read-out: Human APJ cAMP EC50 Potency range.
With `CCCCc1nc(=O)c(S(=O)(=O)c2ccc(-c3ccnc(F)c3C)cc2)c(O)n1[C@H]1CCc2ccccc21` [Example 164, 2-butyl-1-[(1S)-2,3-dihydro-1H-inden-1-yl]-5-[4-(2-fluoro-3-methylpyridin-4-yl)benzenesulfonyl]-6-hydroxy-1,4-dihydropyrimidin-4-one], the EC50 was 0.01 to 10 nM. For `CCCCc1nc(=O)c(S(=O)(=O)c2ccc(Br)cc2)c(O)n1[C@H](C)c1ccc(OC)cc1` [Example 185, 5-(4-bromobenzenesulfonyl)-2-butyl-6-hydroxy-1-[(1R)-1-(4-methoxyphenyl)ethyl]-1,4-dihydropyrimidin-4-one], the EC50 fell in the range of 100 to 300 nM. For `CCCCc1nc(=O)c(S(=O)(=O)c2ccc(-c3cccnc3C)cc2)c(O)n1C(c1ccccc1)C1CC1` (stereo not shown) [Example 206, 2-butyl-1-[cyclopropyl(phenyl)methyl]-6-hydroxy-5-[4-(2-methylpyridin-3-yl)benzenesulfonyl]-1,4-dihydropyrimidin-4-one], the EC50 is 0.01 to 10 nM.

Regarding `COC[C@@H](c1ccccc1)n1c(CC2CC2)nc(=O)c(S(=O)(=O)c2ccc(-c3ccc(F)nc3C)cc2)c1O` [Example 183, 2-(cyclopropylmethyl)-5-[4-(6-fluoro-2-methylpyridin-3-yl)benzenesulfonyl]-6-hydroxy-1-[(1R)-2-methoxy-1-phenylethyl]-1,4-dihydropyrimidin-4-one], the EC50 was in the range of 0.01 to 10 nM.

For `CCCCc1nc(=O)c(S(=O)(=O)c2ccc(-c3ccc(C#N)nc3)cc2)c(O)n1-c1c(OC)cccc1OC` [Example 16, 5-(4-{[2-butyl-1-(2,6-dimethoxyphenyl)-6-hydroxy-4-oxo-1,4-dihydropyrimidin-5-yl]sulfonyl)phenyl)pyri-dine-2-carbonitrile], the EC50 was in the range of 0.01 to 10 nM.

`CCCCc1nc(=O)c(S(=O)(=O)c2ccc(-c3ccc4ncccc4c3)cc2)c(O)n1-c1c(OC)cccc1OC` [Example 54, 2-butyl-1-(2,6-dimethoxyphenyl)-6-hydroxy-5-[4-(quinolin-6-yl)benzenesulfonyl]-1,4-dihydropyrimidin-4-one]: the EC50 fell in the range of 0.01 to 10 nM. Take `CCCc1nc(=O)c(S(=O)(=O)c2ccc(-c3ccnc(F)c3C)cc2)c(O)n1[C@@H](COC)c1ccccc1` [Example 176, 5-[4-(2-fluoro-3-methylpyridin-4-yl)benzenesulfonyl]-6-hydroxy-1-[(1R)-2-methoxy-1-phenylethyl]-2-propyl-1,4-dihydropyrimidin-4-one]: the EC50 was in the range of 0.01 to 10 nM. Turning to `CCCCc1nc(=O)c(S(=O)(=O)c2ccc(-c3ccnc(F)c3C)cc2)c(O)n1C(c1ccccc1)C1CC1` (stereo not shown) [Example 204, 2-butyl-1-[cyclopropyl(phenyl)methyl]-5-[4-(2-fluoro-3-methylpyridin-4-yl)benzenesulfonyl]-6-hydroxy-1,4-dihydropyrimidin-4-one], the EC50 lay in the range of 0.01 to 10 nM.
